Results as given in US5972636A (priority 1997, dated 1999).
Read-outs that look alike come from different tables or passages of the source.

Experiments:
[1] = tested on: 1500 kDa complex (proteasome-multipain); conditions: for Realtive Activity (%) Complex, Ub-lysozyme degradation / effect of nucleotides on Ub-125I-lysozyme hydrolysis by the complex, in words: Table VIII; for Realtive Activity (%) Complex, Ub-lysozyme degradation: 2 mM of the nucleotide or 10 mM PPi
[2] = tested on: new protease (multipain) from skeletal muscle; conditions: for Relative activity (%) NEW […] Ub-lysozyme / Relative activity (%) NEW […] OH/O2 - treated hemoglobin / Relative activity (%) NEW […] lysozyme: Table IV, 37° C. 1 h; for Relative activity (%) NEW […] Ub-lysozyme: DFP 1 mM, Cystatin A 4 uM, Hemin 0.1 mM, NEM 1 mM, Leupeptin 0.1 mM, E64 0.1 mM, NaOleate 0.125 mM, SDS 0.01%, o-Phenanthroline 0.1 mM; for Relative activity (%) NEW […] OH/O2 - treated hemoglobin / Relative activity (%) NEW […] lysozyme: concentrations as in E1; for Relative activity (%), degradation of Ub-125I-lysozyme by the new activity / effect of nucleotides on Ub-125I-lysozyme hydrolysis by the purified enzyme, in words: Table III; for Relative activity (%), degradation of Ub-125I-lysozyme by the new activity: 2 mM of the nucleotides or 10 mM PPi, 37° C. 1 hour; for stimulation of Ub-lysozyme hydrolysis by the new protease: ATP 2 mM where stated, 60 min
[3] = target: T1, proteasome from skeletal muscle (Oryctolagus cuniculus, UniProt G1T4Q9); assay type: biochemical, rabbit
T1 construct: from tissue; host or cells: rabbit skeletal (psoas) muscle, proteasome fraction after Mono Q and Superose 6

[4] = Table VII, None = 100, 2 mM ATP, DFP 1 mM, Cystatin 4 μM, NEM 1 mM, Leupeptin 100 μM, E-64 100 μM, Sodium oleate 125 μM, SDS 0.01%, o-Phenanthroline 100 μM
[5] = Table VII, substrate Ub-125I-lysozyme, None = 100, 2 mM ATP, concentrations as in E5

Row | Molecule | Realtive Activity (%) Proteasome (sLLVT-MCA) [3] [%] | Relative activity (%) […]-MCA [3] [%] | Realtive Activity (%) Complex (Ub-125I-Lysozyme) [1, 4] [%] | Relative activity (%) NEW […] Ub-lysozyme ([2]; None = 100, 2 mM ATP) [%] | Relative activity (%) NEW […] OH/O2 - treated hemoglobin ([2]; None = 100, 2 mM ATP) [%] | Relative activity (%) NEW […] lysozyme ([2]; None = 100, 2 mM ATP) [%] | Realtive Activity (%) Multipain [2, 5] [%] | Realtive Activity (%) Complex, Ub-lysozyme degradation ([1]; None = 100) [%] | Relative activity (%), degradation of Ub-125I-lysozyme by the new activity ([2]; None = 100) [%] | also measured
1 | CBZ-ala-arg-arg-CK | – | – | – | – | – | – | – | – | – | concentration that inactivates the 1500 kDa complex [1]: 50 µM; concentration that inactivates multipain [2]: 50 µM
2 | CC(=O)N[C@@H](CC(C)C)C(=O)N[C@@H](CC(C)C)C(=O)N[C@H](C=O)CCCNC(=N)N [Leupeptin] | 83 | 83 | 75 | 69 | 73 | 72 | 69 | – | – | effect on the complex, in words ([1]; Table VII): did not show any significant effect on the complex; inhibition of Ub-conjugate breakdown by the new protease ([2]; cystatin B at concentrations similar to cystatin A): 30%
3 | O=c1ccn([C@@H]2O[C@H](COP(=O)(O)OP(=O)(O)OP(=O)(O)O)[C@@H](O)[C@H]2O)c(=O)[nH]1 [UTP] | – | – | – | – | – | – | – | 174 | 108 | –
4 | CC(C)C[C@H](NC(=O)[C@H]1O[C@@H]1C(=O)O)C(=O)NCCCCNC(=N)N [E64] | 100 | 100 | 96 | 100 | 100 | 100 | 100 | – | – | effect on the complex, in words ([1]; Table VII): did not show any significant effect on the complex; effect on Ub-conjugate breakdown by the new protease (multipain), in words ([2]; text): not at all; effect on Ub-conjugate breakdown by the new protease (multipain), in words ([2]; text, listed as E-64): unable to inhibit multipain
5 | CCCCCCCCCCCCOS(=O)(=O)[O-].[Na+] [SDS, sodium dodecyl sulfate] | 125 | 125 | – | – | 42 | 46 | – | – | – | Realtive Activity (%) Complex (Ub-125I-Lysozyme) [1]: 46%; Realtive Activity (%) Multipain [2]: 44%; Relative activity (%) NEW PROTEASE Ub-lysozyme [2]: 44%
6 | Nc1nc2c(ncn2[C@@H]2O[C@H](COP(=O)(O)OP(=O)(O)OP(=O)(O)O)[C@@H](O)[C@H]2O)c(=O)[nH]1 [GTP] | – | – | – | – | – | – | – | 326 | 435 | stimulation of Ub-lysozyme hydrolysis by the new protease [2]: ~4 fold
7 | Nc1ccn([C@@H]2O[C@H](COP(=O)(O)OP(=O)(O)OP(=O)(O)O)[C@@H](O)[C@H]2O)c(=O)n1 [CTP] | – | – | – | – | – | – | – | 410 | 373 | stimulation of Ub-lysozyme hydrolysis by the new protease [2]: ~4 fold
8 | Nc1ncnc2c1ncn2[C@@H]1O[C@H](COP(=O)(O)OP(=O)(O)OP(O)(O)=S)[C@@H](O)[C@H]1O [ATP-γ-S, adenosine 5'-o-thiotriphosphate] | – | – | – | – | – | – | – | 135 | 103 | effect of nucleotides on Ub-125I-lysozyme hydrolysis by the complex, in words [1]: No stimulation; effect of nucleotides on Ub-125I-lysozyme hydrolysis by the purified enzyme, in words [2]: No stimulation
9 | Nc1ncnc2c1ncn2[C@@H]1O[C@H](COP(=O)(O)OP(=O)(O)O)[C@@H](O)[C@H]1O [ADP] | – | – | – | – | – | – | – | 146 | 113 | effect of nucleotides on Ub-125I-lysozyme hydrolysis by the complex, in words [1]: no significant effect; effect of nucleotides on Ub-125I-lysozyme hydrolysis by the purified enzyme, in words [2]: no significant effect
10 | CCCCCCCC/C=C\CCCCCCCC(=O)[O-].[Na+] [NaOleate, Sodium oleate] | 179 | 179 | 38 | 29 | 40 | 34 | 29 | – | – | –
11 | c1cnc2c(c1)ccc1cccnc12 [o-Phenanthroline] | 60 | 60 | 57 | 48 | 54 | 55 | 48 | – | – | inhibition of conjugate breakdown by the complex ([1]; Table VII): about 60%; effect on Ub-conjugate breakdown by the new protease (multipain), in words ([2]; text): showed some inhibition
12 | Nc1ncnc2c1ncn2[C@@H]1O[C@H](COP(=O)(O)O)[C@@H](O)[C@H]1O [AMP] | – | – | – | – | – | – | – | 99 | 130 | effect of nucleotides on Ub-125I-lysozyme hydrolysis by the complex, in words [1]: no significant effect; effect of nucleotides on Ub-125I-lysozyme hydrolysis by the purified enzyme, in words [2]: no significant effect
13 | CCN1C(=O)C=CC1=O [NEM, N-ethylmaleimide] | 37 | 37 | 33 | 29 | 30 | 27 | 29 | – | – | inhibition of conjugate breakdown by the complex ([1]; Table VII): 65%; effect on Ub-conjugate breakdown by the new protease (multipain), in words ([2]; text): strongly inhibited this activity
14 | Hemin | – | 0 | – | 0 | 7 | 0 | – | – | – | effect on Ub-conjugate breakdown by the new protease (multipain), in words ([2]; text): blocked conjugate-degrading activity; effect on Ub-conjugate breakdown by the new protease (multipain), in words ([2]; text, listed as hemin): is sensitive to
15 | cystatin B (protein, UniProt P04080 1-98, looked up) Cystatin-B: MMCGAPSATQPATAETQHIADQVRSQLEEKENKKFPVFKAVSFKSQVVAGTNYFIKVHVGDEDFVHLRVFQSLPHENKPLTLSNYQTNKAKHDELTYF | – | – | – | – | – | – | – | – | – | inhibition of Ub-conjugate breakdown by the new protease [2]: 55%
16 | cystatin C: member of the cystatin superfamily (protein, UniProt P01034 27-146, looked up) Cystatin-C: SSPGKPPRLVGGPMDASVEEEGVRRALDFAVGEYNKASNDMYHSRALQVVRARKQIVAGVNYFLDVELGRTTCTKTQPNLDNCPFHDQPHLKRKAFCSFQIYAVPWQGTMTLSKSTCQDA | – | – | – | – | – | – | – | – | – | effect on Ub-conjugate breakdown by the new protease (multipain), in words [2]: no significant effect
